According to ChEMBL document CHEMBL1130745, “Inhibitory effect and action mechanism of sesquiterpenes from Zedoariae Rhizoma on D-galactosamine/lipopolysaccharide-induced liver injury” (1998):

Columns and labels:
Format in all cases: functional
Mus musculus [1] = species: Mus musculus; test: In vitro inhibitory activity on the production of nitric oxide (NO) induced by LPS in mouse peritoneal macrophages at a concentration of 10e-4 M
Mus musculus [2] = test: In vivo inhibitory activity on the increase of serum GPT induced by D-GalN / LPS (liver injury) in mice at 50 mg/kg peroral administration; conditions: route oral
Mus musculus [3] = test: In vivo inhibitory activity on the increase of serum GOT induced by D-GalN / LPS (liver injury) in mice at 50 mg/kg peroral administration; conditions: route oral
Rattus norvegicus = species: Rattus norvegicus; test: In vitro hepatocytotoxicity induced by D-GalN in primary cultured rat hepatocytes at a concentration of 10e-4 M; conditions: Hepatocyte
Mus musculus [4] = test: In vivo inhibitory activity on the increase of serum GOT induced by D-GalN / LPS (liver injury) in mice at 20 mg/kg peroral administration; conditions: route oral

SMILES	inhibition at 100 µM (Mus musculus [1]) [%]	inhibition in vivo at 50 mg/kg (Mus musculus [2]) [%]	inhibition in vivo at 50 mg/kg (Mus musculus [3]) [%]	inhibition at 100 µM (Rattus norvegicus) [%]	inhibition in vivo at 20 mg/kg (Mus musculus [4]) [%]
CC1=CC(=O)C(=C(C)C)CC2[C@@](C)(O)CC[C@]12O (some centres undefined)	-8.8	88	89.1	-41.5	
C=C1CC(=O)C(=C(C)C)CC2[C@H]1CC[C@]2(C)O (some centres undefined)	54.5	26.7	22.3	-5.2	
C/C1=C\CC[C@H](C)C(=O)C[C@@H](C(C)C)C(=O)C1	2	76.6	74.6	77.1	
C=C1CC2(O)O[C@@]3(CC2=C(C)C)[C@@H](C)CC[C@@H]13 (single isomer, unassigned) [ISOCURCUMENOL]	36.5	77.3	80.2	14.2	
CC(C)=C1CC(=O)[C@@H](C)CC/C=C(\C)CC1=O	53.7	49.7	46.2	-6.3	
CC(C)=C1CC2[C@@H](CC[C@]2(C)O)[C@](C)(O)CC1=O (some centres undefined)	31.7	60.7	54.7	-35.6	
CC1=CC2(O)O[C@@]3(CC2=C(C)C)[C@@H](C)CC[C@@H]13 (single isomer, unassigned) [CURCUMENOL]	50.4	50.7	53.3	25.1	
COc1cc(/C=C/C(=O)CC(=O)/C=C/c2ccc(O)c(OC)c2)ccc1O [CURCUMIN]	98.8	71.2	63.4	-44.3	
CC(=O)CC[C@H]1[C@@H]2CC(=C(C)C)C(=O)C[C@]12C	13	90.1	88	-12.2	
C/C1=C\CC[C@]2(C)O[C@H]2C(=O)c2c(C)coc2C1	-5	39.5	35.4	-7.9	
C[C@]12CCC(=O)C=C1CCC1[C@@H]2[C@@H](O)C[C@@]2(C)[C@H]1CC[C@]2(O)C(=O)CO (single isomer, unassigned) [HYDROCORTISONE]	92.6	99			98.3
C/C1=C\Cc2c(C)coc2C/C(C)=C/CC1 [ISOFURANODIENE]	96.1	72.9	74.3	-0.5	
C/C1=C\CC[C@@H](C)C(=O)C[C@@H](C(C)C)C(=O)C1	41.9	59.3	58.4	44.6	
CC(C)=C1C/C=C(\C)CC/C=C(\C)CC1=O	46.8	82.9	78.1	59.8	
C/C1=C\C/C(=C(/C)CO)C(=O)C/C(C)=C/CC1	-14.6	36.1	21.5	-21.7	
